Measurements reported in publication PMC8523698, “Preclinical characterization of an intravenous coronavirus 3CL protease inhibitor for the potential treatment of COVID19” (Nature Communications, 2021).
Several values for one entry are separate records, joined by “and”; a condition that tells them apart may be missing. Equal entries are not always repeated. Where two headings read alike, the source gives them in different places.

Assays:
CYP3A4/5 = assay: Reversible CYP inhibition in human liver microsomes; conditions: for IC50: at approximately KM
OATP1B1 = target: T1, OATP1B1 (Homo sapiens, UniProt Q9Y6L6); assay: Transporter inhibition using transfected HEK293 cells
T1 sequence (Q9Y6L6 1-691): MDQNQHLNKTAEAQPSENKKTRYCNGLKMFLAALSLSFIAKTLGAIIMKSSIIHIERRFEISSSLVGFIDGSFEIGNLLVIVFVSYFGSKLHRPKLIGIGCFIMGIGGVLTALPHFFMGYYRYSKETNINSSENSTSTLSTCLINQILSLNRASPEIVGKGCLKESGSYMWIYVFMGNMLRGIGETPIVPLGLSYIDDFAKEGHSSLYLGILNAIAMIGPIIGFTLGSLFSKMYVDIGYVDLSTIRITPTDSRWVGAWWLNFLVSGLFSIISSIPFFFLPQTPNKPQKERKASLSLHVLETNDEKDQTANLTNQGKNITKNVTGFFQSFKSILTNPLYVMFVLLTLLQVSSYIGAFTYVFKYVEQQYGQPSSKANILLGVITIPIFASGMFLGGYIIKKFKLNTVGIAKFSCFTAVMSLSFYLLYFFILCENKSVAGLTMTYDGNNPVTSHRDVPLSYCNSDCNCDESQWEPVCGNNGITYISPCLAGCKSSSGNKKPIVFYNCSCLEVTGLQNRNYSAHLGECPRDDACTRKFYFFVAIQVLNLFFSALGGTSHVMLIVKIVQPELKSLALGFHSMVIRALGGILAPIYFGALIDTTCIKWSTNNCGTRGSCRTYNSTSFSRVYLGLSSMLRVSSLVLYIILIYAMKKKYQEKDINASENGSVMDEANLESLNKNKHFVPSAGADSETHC

OAT1 = target: T2, OAT1 (Homo sapiens, UniProt Q4U2R8); assay: as above
T2 sequence (Q4U2R8 1-563): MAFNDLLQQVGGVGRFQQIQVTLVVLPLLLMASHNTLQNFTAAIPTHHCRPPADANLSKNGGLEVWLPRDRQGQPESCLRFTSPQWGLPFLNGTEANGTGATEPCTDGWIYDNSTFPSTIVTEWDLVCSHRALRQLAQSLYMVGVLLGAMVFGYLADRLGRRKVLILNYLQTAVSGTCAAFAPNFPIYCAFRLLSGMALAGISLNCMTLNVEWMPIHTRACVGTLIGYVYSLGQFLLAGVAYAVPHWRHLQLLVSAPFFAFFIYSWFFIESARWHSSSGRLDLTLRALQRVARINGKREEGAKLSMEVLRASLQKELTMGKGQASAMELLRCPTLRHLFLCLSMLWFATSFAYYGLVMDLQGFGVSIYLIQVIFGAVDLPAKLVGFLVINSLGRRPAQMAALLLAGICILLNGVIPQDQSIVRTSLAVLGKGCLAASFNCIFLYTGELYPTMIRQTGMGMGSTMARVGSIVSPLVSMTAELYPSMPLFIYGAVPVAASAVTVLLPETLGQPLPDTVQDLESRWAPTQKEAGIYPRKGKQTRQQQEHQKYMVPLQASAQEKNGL

OCT2 = target: T3, OCT2 (Homo sapiens, UniProt O15244); assay: as above
T3 sequence (O15244 1-555): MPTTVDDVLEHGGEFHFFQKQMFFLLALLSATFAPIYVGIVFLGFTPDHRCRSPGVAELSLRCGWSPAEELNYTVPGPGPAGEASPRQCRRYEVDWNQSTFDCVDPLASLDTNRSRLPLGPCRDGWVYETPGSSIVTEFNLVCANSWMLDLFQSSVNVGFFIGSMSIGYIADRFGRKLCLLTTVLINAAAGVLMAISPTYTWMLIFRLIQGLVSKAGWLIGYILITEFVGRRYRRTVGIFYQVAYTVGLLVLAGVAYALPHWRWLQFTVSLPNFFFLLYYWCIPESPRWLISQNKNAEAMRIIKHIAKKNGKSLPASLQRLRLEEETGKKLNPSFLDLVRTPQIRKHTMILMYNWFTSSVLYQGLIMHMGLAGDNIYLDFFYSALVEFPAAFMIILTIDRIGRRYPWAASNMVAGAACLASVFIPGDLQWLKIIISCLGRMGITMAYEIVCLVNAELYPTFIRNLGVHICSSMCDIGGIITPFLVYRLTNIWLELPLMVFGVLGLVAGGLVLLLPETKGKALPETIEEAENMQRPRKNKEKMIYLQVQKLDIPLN

SMILES: COc1cccc2[nH]c(C(=O)N[C@@H](CC(C)C)C(=O)N[C@@H](C[C@@H]3CCNC3=O)C(=O)CO)cc12 [PF-00835231]
- Percent of Control Activity (CYP3A4/5; CYP 3A4/5 (tst), 4.48 µM, Zero-Minute Preincubation): 92.4% and 117.7% and 97.0%
- Percent of Control Activity (CYP3A4/5; CYP 3A4/5 (tst), 20.5 µM, 30-Minute Preincubation): 84.0%
- Percent of Control Activity (CYP3A4/5; CYP 3A4/5 (tst), 20.5 µM, Zero-Minute Preincubation): 71.0% and 70.3%
- Percent of Control Activity (CYP3A4/5; CYP 3A4/5 (tst), 43.8 µM, 30-Minute Preincubation): 71.6%
- Percent of Control Activity (CYP3A4/5; CYP 3A4/5 (tst), 43.8 µM, Zero-Minute Preincubation): 96.7%
- Percent of Control Activity (CYP3A4/5; CYP 3A4/5 (tst), 93.5 µM, 30-Minute Preincubation): 42.9% and 41.8%
- Percent of Control Activity (CYP3A4/5; CYP 3A4/5 (tst), 93.5 µM, Zero-Minute Preincubation): 60.1%
- Percent of Control Activity (CYP3A4/5; CYP 3A4/5 (tst), 200 µM, 30-Minute Preincubation): 26.6%
- Percent of Control Activity (CYP3A4/5; CYP 3A4/5 (tst), 200 µM, Zero-Minute Preincubation): 39.6% and 35.7%
- IC50 (CYP3A4/5; human, human liver microsomes, pH 7.4, probe midazolam (1′-hydroxylation), IC50, Midazolam 1′-hydroxylation, T0): > 200 µM
- IC50 (CYP3A4/5; human, human liver microsomes, pH 7.4, probe midazolam (1′-hydroxylation), IC50, Midazolam 1′-hydroxylation, T30): > 200 µM
- activity at 0.1 µM (CYP3A4/5; human, human liver microsomes, pH 7.4, probe midazolam (mdz), Percent of Control Activity, CYP 3A4/5 (mdz), 0.1 µM, 30-Minute Preincubation): 113%
- activity at 0.214 µM (CYP3A4/5; human, human liver microsomes, pH 7.4, probe midazolam (mdz), Percent of Control Activity, CYP 3A4/5 (mdz), 0.214 µM, 30-Minute Preincubation): 111%
- activity at 0.214 µM (CYP3A4/5; human, human liver microsomes, pH 7.4, probe midazolam (mdz), Percent of Control Activity, CYP 3A4/5 (mdz), 0.214 µM, Zero-Minute Preincubation): 107%
- activity at 0.979 µM (CYP3A4/5; human, human liver microsomes, pH 7.4, probe midazolam (mdz), Percent of Control Activity, CYP 3A4/5 (mdz), 0.979 µM, 30-Minute Preincubation): 113%
- activity at 0.979 µM (CYP3A4/5; human, human liver microsomes, pH 7.4, probe midazolam (mdz), Percent of Control Activity, CYP 3A4/5 (mdz), 0.979 µM, Zero-Minute Preincubation): 115%
- activity at 2.09 µM (CYP3A4/5; human, human liver microsomes, pH 7.4, probe midazolam (mdz), Percent of Control Activity, CYP 3A4/5 (mdz), 2.09 µM, 30-Minute Preincubation): 112%
- activity at 2.09 µM (CYP3A4/5; human, human liver microsomes, pH 7.4, probe midazolam (mdz), Percent of Control Activity, CYP 3A4/5 (mdz), 2.09 µM, Zero-Minute Preincubation): 100%
- activity at 4.48 µM (CYP3A4/5; human, human liver microsomes, pH 7.4, probe midazolam (mdz), Percent of Control Activity, CYP 3A4/5 (mdz), 4.48 µM, 30-Minute Preincubation): 106%
- activity at 43.8 µM (CYP3A4/5; human, human liver microsomes, pH 7.4, probe midazolam (mdz), Percent of Control Activity, CYP 3A4/5 (mdz), 43.8 µM, 30-Minute Preincubation): 88.1%
- activity at 93.5 µM (CYP3A4/5; human, human liver microsomes, pH 7.4, probe midazolam (mdz), Percent of Control Activity, CYP 3A4/5 (mdz), 93.5 µM, 30-Minute Preincubation): 72.3%
- activity at 93.5 µM (CYP3A4/5; human, human liver microsomes, pH 7.4, probe midazolam (mdz), Percent of Control Activity, CYP 3A4/5 (mdz), 93.5 µM, Zero-Minute Preincubation): 113%
- activity at 200 µM (CYP3A4/5; human, human liver microsomes, pH 7.4, probe midazolam (mdz), Percent of Control Activity, CYP 3A4/5 (mdz), 200 µM, 30-Minute Preincubation): 54.3%
- activity at 200 µM (CYP3A4/5; human, human liver microsomes, pH 7.4, probe midazolam (mdz), Percent of Control Activity, CYP 3A4/5 (mdz), 200 µM, Zero-Minute Preincubation): 107%
- IC50 (CYP3A4/5; human, human liver microsomes, pH 7.4, probe testosterone (6β-hydroxylation), IC50 (confidence interval), Testosterone 6β-hydroxylation, T0): 108 µM
- IC50 (CYP3A4/5; human, human liver microsomes, pH 7.4, probe testosterone (6β-hydroxylation), IC50 (confidence interval), Testosterone 6β-hydroxylation, T30): 62.4 µM
- activity at 30 min, 0.1 µM (CYP3A4/5; human, human liver microsomes, pH 7.4, probe testosterone (tst), Percent of Control Activity, CYP 3A4/5 (tst), 0.1 µM, 30-Minute Preincubation): 92.1%
- activity at 0.1 µM (CYP3A4/5; human, human liver microsomes, pH 7.4, probe testosterone (tst), Percent of Control Activity, CYP 3A4/5 (tst), 0.1 µM, Zero-Minute Preincubation): 88.6%
- activity at 30 min, 0.214 µM (CYP3A4/5; human, human liver microsomes, pH 7.4, probe testosterone (tst), Percent of Control Activity, CYP 3A4/5 (tst), 0.214 µM, 30-Minute Preincubation): 115%
- activity at 30 min, 0.979 µM (CYP3A4/5; human, human liver microsomes, pH 7.4, probe testosterone (tst), Percent of Control Activity, CYP 3A4/5 (tst), 0.979 µM, 30-Minute Preincubation): 116%
- activity at 0 min, 0.979 µM (CYP3A4/5; human, human liver microsomes, pH 7.4, probe testosterone (tst), Percent of Control Activity, CYP 3A4/5 (tst), 0.979 µM, Zero-Minute Preincubation): 114%
- activity at 0 min, 2.09 µM (CYP3A4/5; human, human liver microsomes, pH 7.4, probe testosterone (tst), Percent of Control Activity, CYP 3A4/5 (tst), 2.09 µM, Zero-Minute Preincubation): 109%
- activity at 43.8 µM (CYP3A4/5; human, human liver microsomes, pH 7.4, probe testosterone (tst), Percent of Control Activity, CYP 3A4/5 (tst), 43.8 µM, 30-Minute Preincubation): 73.4%
- activity at 43.8 µM (CYP3A4/5; human, human liver microsomes, pH 7.4, probe testosterone (tst), Percent of Control Activity, CYP 3A4/5 (tst), 43.8 µM, Zero-Minute Preincubation): 75.3%
- activity at 93.5 µM (CYP3A4/5; human, human liver microsomes, pH 7.4, probe testosterone (tst), Percent of Control Activity, CYP 3A4/5 (tst), 93.5 µM, 30-Minute Preincubation): 37.7%
- activity at 93.5 µM (CYP3A4/5; human, human liver microsomes, pH 7.4, probe testosterone (tst), Percent of Control Activity, CYP 3A4/5 (tst), 93.5 µM, Zero-Minute Preincubation): 54.9%
- activity at 200 µM (CYP3A4/5; human, human liver microsomes, pH 7.4, probe testosterone (tst), Percent of Control Activity, CYP 3A4/5 (tst), 200 µM, 30-Minute Preincubation): 15.1%
- activity at 200 µM (CYP3A4/5; human, human liver microsomes, pH 7.4, probe testosterone (tst), Percent of Control Activity, CYP 3A4/5 (tst), 200 µM, Zero-Minute Preincubation): 36.4%
- IC50 (OATP1B1): 30.1 µM
- IC50 (OATP1B1; human, HEK293 cells stably transfected with OATP1B1, pH 7.4, probe rosuvastatin (0.5 µM)): > 20 µM
- IC50 (OAT1): > 300 µM
- IC50 (OAT1; human, HEK293 cells transfected with OAT1, pH 7.4, probe [3H] para-aminohippuric acid (0.5 µM)): > 20 µM
- IC50 (OCT2): > 300 µM
- IC50 (OCT2; human, HEK293 cells stably transfected with OCT2, pH 7.4, probe [14C]-metformin (20 µM)): > 20 µM
